Measured values from ChEMBL document CHEMBL4842385, “Indirubin Derivatives as Dual Inhibitors Targeting Cyclin-Dependent Kinase and Histone Deacetylase for Treating Cancer” (J Med Chem, 2021).
pIC50: −log10 of the molar value.

Legend:
[1] = biological target: Histone deacetylase 5 (Homo sapiens, UniProt Q9UQL6); assay: Inhibition of HDAC5 (unknown origin) measured after 30 mins by fluorescence microplate reader assay
[2] = test system: MCF7; assay: Induction of apoptosis in human MCF7 cells measured after 48 hrs by Annexin-V/FITC-propidium iodide staining based flow cytometry analysis; format: functional, cell-based; conditions: dose 2.5-10 µM
[3] = biological target: Histone deacetylase 1 (Homo sapiens, UniProt Q13547); assay: Inhibition of HDAC1 (unknown origin) measured after 30 mins by fluorescence microplate reader assay
Histone deacetylase 1, sequence (Q13547 whole entry): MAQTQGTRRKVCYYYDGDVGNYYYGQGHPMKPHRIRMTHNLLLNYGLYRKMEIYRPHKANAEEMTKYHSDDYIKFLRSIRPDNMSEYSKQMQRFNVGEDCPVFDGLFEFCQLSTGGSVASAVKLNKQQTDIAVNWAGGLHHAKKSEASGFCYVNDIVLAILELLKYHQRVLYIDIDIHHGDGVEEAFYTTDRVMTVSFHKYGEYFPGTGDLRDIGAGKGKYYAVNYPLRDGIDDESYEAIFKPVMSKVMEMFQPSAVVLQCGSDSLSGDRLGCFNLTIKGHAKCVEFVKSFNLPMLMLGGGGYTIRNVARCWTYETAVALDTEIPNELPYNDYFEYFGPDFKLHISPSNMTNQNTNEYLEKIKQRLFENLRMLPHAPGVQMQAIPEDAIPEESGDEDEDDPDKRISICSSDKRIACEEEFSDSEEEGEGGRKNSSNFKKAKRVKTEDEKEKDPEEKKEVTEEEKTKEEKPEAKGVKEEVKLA

[4] = test system: HeLa; assay: Antiproliferative activity against human HeLa cells assessed as cell growth inhibition measured after 48 hrs by CCK8 assay; format: functional, cell-based
[5] = test system: HepG2; assay: Antiproliferative activity against human HepG2 cells assessed as cell growth inhibition measured after 48 hrs by CCK8 assay; format: functional, cell-based; conditions: HepG2, 48 h
[6] = biological target: T1, Histone deacetylase 7 (Homo sapiens, UniProt Q8WUI4); assay: Inhibition of HDAC7 (unknown origin) measured after 30 mins by fluorescence microplate reader assay
T1 sequence (Q8WUI4 whole entry): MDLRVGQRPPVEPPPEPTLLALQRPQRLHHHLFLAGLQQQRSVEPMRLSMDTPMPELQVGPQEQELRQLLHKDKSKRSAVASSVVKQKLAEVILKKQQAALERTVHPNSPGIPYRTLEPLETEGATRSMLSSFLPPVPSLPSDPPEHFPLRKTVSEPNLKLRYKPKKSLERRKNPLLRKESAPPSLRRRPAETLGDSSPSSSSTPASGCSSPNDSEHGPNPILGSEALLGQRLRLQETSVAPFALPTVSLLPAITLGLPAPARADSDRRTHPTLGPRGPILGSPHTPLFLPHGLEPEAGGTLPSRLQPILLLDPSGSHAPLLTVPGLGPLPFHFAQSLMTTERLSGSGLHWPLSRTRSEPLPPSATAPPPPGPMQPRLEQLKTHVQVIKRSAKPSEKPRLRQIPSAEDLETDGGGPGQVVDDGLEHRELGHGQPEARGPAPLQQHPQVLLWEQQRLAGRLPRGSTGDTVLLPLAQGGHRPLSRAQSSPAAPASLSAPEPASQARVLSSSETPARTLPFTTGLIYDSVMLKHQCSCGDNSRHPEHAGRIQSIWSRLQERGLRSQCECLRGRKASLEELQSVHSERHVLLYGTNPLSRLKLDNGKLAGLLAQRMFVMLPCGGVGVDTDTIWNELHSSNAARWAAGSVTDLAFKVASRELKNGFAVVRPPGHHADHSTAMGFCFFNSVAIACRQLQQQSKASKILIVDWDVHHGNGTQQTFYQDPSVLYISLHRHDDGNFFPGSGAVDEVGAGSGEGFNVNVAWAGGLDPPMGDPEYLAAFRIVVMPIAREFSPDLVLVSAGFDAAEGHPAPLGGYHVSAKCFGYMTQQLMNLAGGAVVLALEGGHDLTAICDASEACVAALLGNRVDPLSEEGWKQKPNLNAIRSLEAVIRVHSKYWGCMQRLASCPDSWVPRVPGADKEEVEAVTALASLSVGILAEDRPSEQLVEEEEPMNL

[7] = biological target: CDK2/Cyclin A2 (Homo sapiens) (UniProt P24941+P20248); conditions: dose 100.0 nM, time 10.0 min
[8] = biological target: NAD-dependent protein deacetylase sirtuin-2 (Homo sapiens, UniProt Q8IXJ6); assay: Inhibition of recombinant human SIRT2 measured after 30 mins by fluorescence microplate reader assay
NAD-dependent protein deacetylase sirtuin-2, sequence (Q8IXJ6 whole entry, the tested form may be a part): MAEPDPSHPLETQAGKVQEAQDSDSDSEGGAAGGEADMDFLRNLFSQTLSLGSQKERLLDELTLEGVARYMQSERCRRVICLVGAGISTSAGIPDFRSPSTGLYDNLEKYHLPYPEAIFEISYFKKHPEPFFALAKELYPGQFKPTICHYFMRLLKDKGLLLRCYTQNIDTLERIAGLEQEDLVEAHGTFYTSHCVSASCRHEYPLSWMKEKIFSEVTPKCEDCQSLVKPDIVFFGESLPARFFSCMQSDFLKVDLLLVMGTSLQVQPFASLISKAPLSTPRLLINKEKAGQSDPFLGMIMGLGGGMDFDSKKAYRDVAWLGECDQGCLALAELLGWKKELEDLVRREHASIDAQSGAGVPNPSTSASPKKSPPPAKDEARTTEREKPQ

[9] = biological target: CDK4/Cyclin D3 (Homo sapiens, UniProt P11802); assay: Inhibition of full length human CDK4 (1 to 303 residues)/N-terminal GST-fusion tagged CyclinD3 (1 to 292 residues) expressed in baculovirus expression system preincubated for 10 mins followed by substrate and ATP addition by mobility shift assay
CDK4/Cyclin D3, sequence (P11802 whole entry, the tested form may be a part): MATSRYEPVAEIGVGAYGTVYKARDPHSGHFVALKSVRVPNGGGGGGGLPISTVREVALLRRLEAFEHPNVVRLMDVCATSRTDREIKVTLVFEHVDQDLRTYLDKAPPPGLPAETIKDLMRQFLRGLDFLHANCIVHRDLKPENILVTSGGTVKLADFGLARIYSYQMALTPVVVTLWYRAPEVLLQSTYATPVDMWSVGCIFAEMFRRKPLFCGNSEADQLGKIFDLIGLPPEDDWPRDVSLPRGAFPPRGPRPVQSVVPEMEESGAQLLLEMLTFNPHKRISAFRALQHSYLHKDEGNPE
CDK4/Cyclin D3, sequence (P30281 whole entry, further chain, the tested form may be a part): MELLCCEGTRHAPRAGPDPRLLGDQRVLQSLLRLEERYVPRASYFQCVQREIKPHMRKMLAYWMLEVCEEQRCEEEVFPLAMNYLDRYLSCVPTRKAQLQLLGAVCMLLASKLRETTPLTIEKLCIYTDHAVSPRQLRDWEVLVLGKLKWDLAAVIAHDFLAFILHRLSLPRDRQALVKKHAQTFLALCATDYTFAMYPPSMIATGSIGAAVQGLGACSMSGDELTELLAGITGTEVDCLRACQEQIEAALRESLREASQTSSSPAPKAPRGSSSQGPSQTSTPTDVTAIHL

[10] = test system: K562; assay: Antiproliferative activity against human K562 cells assessed as cell growth inhibition measured after 48 hrs by CCK8 assay; format: functional, cell-based; conditions: K562, 48 h
[11] = biological target: CDK4/Cyclin D3 (Homo sapiens) (UniProt P11802+P30281); conditions: dose 100.0 nM, time 10.0 min
[12] = Bioavailability in Sprague-Dawley rat at 50 mg/kg, ip measured up to 24 hrs by LC-MS analysis; format: ADME, organism-based; conditions: in vivo
[13] = biological target: Histone deacetylase (Homo sapiens) (UniProt Q13547+O15379+Q9UBN7+Q92769+Q9UQL6+Q8WUI4+Q9BY41+Q96DB2+P56524+Q9UKV0+Q969S8); conditions: HeLa, Nucleus, dose 1000.0 nM, time 1.0 hrs
[14] = test system: A549; assay: Antiproliferative activity against human A549 cells assessed as cell growth inhibition measured after 48 hrs by CCK8 assay; format: functional, cell-based; conditions: A549, 48 h
[15] = biological target: Histone deacetylase 2 (Homo sapiens, UniProt Q92769); assay: Inhibition of HDAC2 (unknown origin) measured after 30 mins by fluorescence microplate reader assay
Histone deacetylase 2, sequence (Q92769 whole entry): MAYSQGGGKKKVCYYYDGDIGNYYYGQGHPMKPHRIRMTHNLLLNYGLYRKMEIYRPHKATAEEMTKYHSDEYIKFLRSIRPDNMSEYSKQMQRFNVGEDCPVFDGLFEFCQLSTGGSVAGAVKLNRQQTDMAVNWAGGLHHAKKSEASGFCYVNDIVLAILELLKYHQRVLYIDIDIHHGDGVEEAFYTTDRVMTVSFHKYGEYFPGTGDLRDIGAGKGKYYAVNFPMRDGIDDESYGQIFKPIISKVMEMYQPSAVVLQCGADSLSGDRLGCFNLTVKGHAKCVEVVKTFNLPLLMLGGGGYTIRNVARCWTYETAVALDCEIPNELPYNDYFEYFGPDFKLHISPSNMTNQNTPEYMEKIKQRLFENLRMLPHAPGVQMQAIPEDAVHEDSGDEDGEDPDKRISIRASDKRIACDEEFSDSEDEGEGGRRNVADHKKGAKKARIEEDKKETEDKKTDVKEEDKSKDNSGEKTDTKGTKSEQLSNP

[16] = biological target: NAD-dependent protein deacylase sirtuin-5, mitochondrial (Homo sapiens, UniProt Q9NXA8); assay: Inhibition of recombinant human SIRT5 measured after 30 mins by fluorescence microplate reader assay
NAD-dependent protein deacylase sirtuin-5, mitochondrial, sequence (Q9NXA8 whole entry): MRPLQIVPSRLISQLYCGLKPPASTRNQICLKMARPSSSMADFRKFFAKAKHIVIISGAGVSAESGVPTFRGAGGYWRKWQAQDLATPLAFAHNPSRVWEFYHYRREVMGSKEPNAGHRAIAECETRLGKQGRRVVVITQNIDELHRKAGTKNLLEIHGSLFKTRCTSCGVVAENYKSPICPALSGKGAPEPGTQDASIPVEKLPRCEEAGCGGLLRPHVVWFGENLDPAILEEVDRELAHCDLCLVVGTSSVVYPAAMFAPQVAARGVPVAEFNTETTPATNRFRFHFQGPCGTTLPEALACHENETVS

[17] = biological target: Histone deacetylase 9 (Homo sapiens, UniProt Q9UKV0); assay: Inhibition of recombinant human HDAC9 measured after 30 mins by fluorescence microplate reader assay
Histone deacetylase 9, sequence (Q9UKV0 whole entry): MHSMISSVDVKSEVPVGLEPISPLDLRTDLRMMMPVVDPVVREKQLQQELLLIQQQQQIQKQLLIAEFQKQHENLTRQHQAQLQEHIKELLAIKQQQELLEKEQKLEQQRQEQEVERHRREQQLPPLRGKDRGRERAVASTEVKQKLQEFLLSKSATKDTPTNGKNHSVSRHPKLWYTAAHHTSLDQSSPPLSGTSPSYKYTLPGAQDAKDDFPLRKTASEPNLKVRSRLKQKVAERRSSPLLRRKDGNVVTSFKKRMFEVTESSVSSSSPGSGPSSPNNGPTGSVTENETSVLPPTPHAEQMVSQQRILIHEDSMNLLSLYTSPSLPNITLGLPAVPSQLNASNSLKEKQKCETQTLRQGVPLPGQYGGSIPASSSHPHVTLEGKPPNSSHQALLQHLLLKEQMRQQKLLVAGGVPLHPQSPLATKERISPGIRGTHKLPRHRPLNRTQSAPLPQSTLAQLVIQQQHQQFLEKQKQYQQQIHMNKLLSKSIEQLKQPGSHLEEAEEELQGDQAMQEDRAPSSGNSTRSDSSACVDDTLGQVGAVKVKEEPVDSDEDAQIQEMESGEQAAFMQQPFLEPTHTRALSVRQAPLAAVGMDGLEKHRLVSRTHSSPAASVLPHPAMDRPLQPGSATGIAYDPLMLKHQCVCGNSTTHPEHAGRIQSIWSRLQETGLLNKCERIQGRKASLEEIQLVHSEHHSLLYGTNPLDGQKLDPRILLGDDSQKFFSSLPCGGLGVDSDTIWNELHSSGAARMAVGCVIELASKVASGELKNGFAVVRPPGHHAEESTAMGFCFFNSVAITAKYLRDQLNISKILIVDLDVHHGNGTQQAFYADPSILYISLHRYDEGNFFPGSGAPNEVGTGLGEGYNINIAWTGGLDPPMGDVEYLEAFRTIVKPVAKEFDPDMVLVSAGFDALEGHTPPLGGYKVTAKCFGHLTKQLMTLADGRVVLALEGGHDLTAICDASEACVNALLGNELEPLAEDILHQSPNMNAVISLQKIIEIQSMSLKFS

[18] = test system: K562; assay: Cycle arrest in human K562 cells assessed as increase in cell population at S phase measured after 24 hrs by propidium iodide/RNase staining based flow cytometry; format: functional; conditions: dose 2.5-10 µM

Histone deacetylase 5, sequence (Q9UQL6 whole entry): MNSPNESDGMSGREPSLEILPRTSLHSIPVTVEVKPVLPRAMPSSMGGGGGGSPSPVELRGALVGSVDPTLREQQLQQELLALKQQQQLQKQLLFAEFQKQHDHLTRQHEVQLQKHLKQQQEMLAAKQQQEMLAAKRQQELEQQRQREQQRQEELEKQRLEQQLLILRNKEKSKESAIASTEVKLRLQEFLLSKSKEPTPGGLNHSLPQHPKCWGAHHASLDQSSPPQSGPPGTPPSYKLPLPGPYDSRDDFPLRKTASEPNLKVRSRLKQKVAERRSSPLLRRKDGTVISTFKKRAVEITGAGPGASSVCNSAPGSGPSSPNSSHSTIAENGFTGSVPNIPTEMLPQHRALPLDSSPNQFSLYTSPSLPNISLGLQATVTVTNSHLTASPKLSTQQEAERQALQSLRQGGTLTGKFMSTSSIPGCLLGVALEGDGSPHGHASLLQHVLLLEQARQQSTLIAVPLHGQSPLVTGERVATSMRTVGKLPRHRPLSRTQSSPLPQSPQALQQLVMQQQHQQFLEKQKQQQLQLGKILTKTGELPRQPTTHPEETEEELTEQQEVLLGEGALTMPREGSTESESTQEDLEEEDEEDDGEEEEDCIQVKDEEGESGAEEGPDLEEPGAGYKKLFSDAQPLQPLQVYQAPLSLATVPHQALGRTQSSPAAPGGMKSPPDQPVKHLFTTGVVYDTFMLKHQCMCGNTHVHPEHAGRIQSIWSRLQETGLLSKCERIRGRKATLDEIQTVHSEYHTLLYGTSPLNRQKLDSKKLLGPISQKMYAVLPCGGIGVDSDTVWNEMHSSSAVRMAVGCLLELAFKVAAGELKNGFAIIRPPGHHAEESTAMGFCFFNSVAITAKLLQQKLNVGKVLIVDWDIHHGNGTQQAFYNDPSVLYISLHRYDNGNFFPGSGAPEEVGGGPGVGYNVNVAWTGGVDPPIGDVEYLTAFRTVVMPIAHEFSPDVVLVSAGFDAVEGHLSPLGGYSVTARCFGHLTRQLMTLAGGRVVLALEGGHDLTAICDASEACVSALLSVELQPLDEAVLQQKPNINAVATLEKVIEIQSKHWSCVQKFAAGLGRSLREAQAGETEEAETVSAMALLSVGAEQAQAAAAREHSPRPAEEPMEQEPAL

| SMILES | pIC50 [1] | Activity [2] | pIC50 [3] | pIC50 [4] | pIC50 [5] | pIC50 [6] | inhibition [7] | pIC50 [8] | pIC50 [9] | pIC50 [10] | inhibition [11] | bioavailability [12] | inhibition [13] | pIC50 [14] | pIC50 [15] | pIC50 [16] | pIC50 [17] | Activity [18] |
| --- | --- | --- | --- | --- | --- | --- | --- | --- | --- | --- | --- | --- | --- | --- | --- | --- | --- | --- |
| O=C(CCCO/N=C1/C(=C2/C(=O)Nc3ccccc32)Nc2ccccc21)NO | < 5.30 | Dose-Dependent Effect | < 5.30 | 6.10 | 5.24 | < 5.30 | 66.8% | < 4.00 | 6.56 | 5.60 | 30.2% | 13% | 51% | 5.70 | < 5.30 | < 4.00 | < 5.30 | Dose-Dependent Effect |
| O=C(O)CCCO/N=C1/C(=C2/C(=O)Nc3ccccc32)Nc2ccccc21 | < 5.30 |  | < 5.30 | < 5.00 | < 5.00 | < 5.30 | 34.9% | < 4.00 |  | < 5.00 |  |  | 0.1% | < 5.00 | < 5.30 | < 4.00 | < 5.30 |  |
| C#CCN1C(=O)/C(=C2\Nc3ccccc3\C2=N/OCCCC(=O)NO)c2ccccc21 |  |  | < 4.00 |  |  | < 5.30 | 4.5% |  | < 6.00 |  | 3.9% |  | 23% |  | < 4.00 |  |  |  |
